Columns and labels:
Assay type in all cases: in vivo, mouse
[1] = test system: C57BL/6J mice on high fat diet; experiment: Body temperature in cold response (4° C.); conditions: butyrate 5% w/w in HFD 10 weeks, ambient 4° C.
Description: Body temperature was measured in the cold room with ambient temperature at 4° C. Animals were sedated and restrained for less than 30 sec in the measurement. A Thermalert model TH-8 temperature monitor (Physitemp, Clifton, N.J.) was used with probe placed in the rectum at 2.5 cm in depth.
The association of increased food intake with elevated energy expenditure implicated a role of brown adipose tissue, which is responsible for adaptive thermogenesis in response to diet or cold (20-22). Diet-induced thermogenesis reduces obesity in both humans and animals (23). […] To determine the thermogenic function, a cold-response experiment was conducted by exposing the mice to a cold environment with an ambient temperature of 4° C. for 90 min. The mice had been on HFD for 10 weeks. The body core temperature was monitored three times during exposure by measuring the rectal temperature. In the control mice, the body temperature decreased with time and was 34.5° C. after 90 min in the cold (FIG. 4A). In the butyrate-treated mice, the body temperature dropped to 35° C. transiently at 30 minutes, and then returned to 36° C. for the rest of time.

[2] = test system: skeletal muscle mitochondrial function; experiment: Fatty acid oxidation and gene expression in skeletal muscle; conditions: butyrate 5% w/w in HFD 13 weeks
Description: Total RNA was extracted from frozen tissues (kept at −80° C.) using Tri-Reagent (T9424, Sigma) as described elsewhere (16). Taqman RT-PCR primer and probe were used to determine mRNA for PGC-1α (Mm00447183_m1), UCP-1 (Mm00494069_m1), PPARδ (Mm01305434_m1) and CPT1b (Mm00487200_m1). The reagents were purchased from Applied Biosystems (Foster City, Calif.). Mouse ribosome 18S rRNA_s1 (without intron-exon junction) was used as an internal control. Reaction was conducted with 7900 HT Fast real time PCR System (Applied Biosystems, Foster City, Calif.).
Mitochondrial function was examined in the skeletal muscle tissue and L6 muscle cells under butyrate treatment. Fatty acid oxidation was monitored in the […] with ^14C-labeled palmitic acid.
Vastus laterais muscle and blood samples were collected from mice at 13 weeks on HFD (18 weeks in age) and examined for fatty acid oxidation, gene expression, and blood lipids. FIG. 7A illustrates the fatty acid oxidation in muscle, measured as a fold change in ^14C-labeled CO2.
In addition, relative fold change in mRNA was used to indicate gene expression of PGC-1α target genes, such as CPT-1b (carnitine palmitoyltransferase-1b) and COX-I (cytochrome c oxidase I), and of the nuclear receptor PPARδ. In FIG. 7C, mitochondrial DNA of COX I was determined by Sybr green RT-PCR. The fatty acid oxidation was associated with expression of PGC-1α target genes, such as CPT-1b (carnitine palmitoyltransferase-1b) and COX-I (cytochrome c oxidase I) (9). Expression of these two genes was increased in the skeletal muscle of butyrate-treated mice (FIGS. 7B and 7C). The nuclear receptor PPARδ promotes fatty acids oxidation in skeletal muscle (29).

[3] = test system: skeletal muscle (vastus laterais, gastrocnemius, soleus); experiment: Skeletal muscle fiber type and immunoblot; conditions: butyrate 5% w/w in HFD 13 weeks
From the text: Fresh fat and muscles were collected and frozen in liquid nitrogen. The whole cell lysate protein was extract in lysis buffer with sonication and analyzed in western blot as described elsewhere (16). Antibodies were used in study of myoglobin (sc-25607, Santa Cruz), PGC-1 (sc-13068, Santa Cruz), Tubulin (ab7291, Abcam), myosin (M8421, Sigma), pAMPK (Thr 172, #2531, Cell signaling) and p-p38 (sc-7975, Santa Cruz). To detect multiple signals from one membrane, the membrane was stripped with a stripping buffer. Intensity of the immunoblot signal was quantified using a computer program, ImageJ 1.37v (NIH). The mean values of results from three experiments (6 mice each group) were presented. The antibodies to PGC-1α and UCP-1 were from Dr. Thomas Gettys at Pennington Biomedical Research Center, Baton Rouge, La.
The fiber types in skeletal muscle were examined using two methods: succinate dehydrogenase (SDH) staining for […] and immunostaining of type I myosin heavy chain. In the SDH staining, mid-belly cross-sections of muscle were cut at 8 μm in a cryostat (−20° C.). After drying for 5 min at room temperature, the sections were incubated at 37° C. for 60 min in the incubation solution containing 6.5 mmol/l sodium phosphate monobasic, 43.5 mmol/l sodium phosphate biphasic, 0.6 mmol/l nitroblue tetrazolium (74032, Sigma), and 50 mmol/l sodium succinate (14160, Sigma). The sections were rinsed three times (30 sec/time) in 0.9% saline, 5 min in 15% ethanol and then mounted with aqueous mounting medium (Dakocyrtoma).
Fresh skeletal muscle was collected, embedded in gum tragacanth mixed with OCT freezing matrix, and quickly frozen in isopentane cooled in liquid nitrogen. The tissue slides were obtained through serial cross-section cutting at 8 um thickness and processed with a standard procedure. The slides was blotted with a monoclonal antibody against the type I myosin heavy chain (M8421, Sigma) at 1:200 dilution. After being washed, the slide was incubated with a biotinylated secondary antibody (BA-2000). For PGC-1 staining, paraffin sections (8 μm) of BAT or inguinal fat on slides were deparaffinized and blotted with primary antibody of PGC-1 (sc-13067, Santa Cruz) at 1:200, the sections were washed and incubated with a biotinylated secondary antibody (rabbit IgG) in ABC kit. The slides were then incubated with the ABC elite reagent (PK-6101) and color reaction was performed using the DAB substrate kit (SK-4100) for myosin I and AEC substrate kit (AEC101, Sigma) for PGC-1a according to instructions by the manufacturers.
To look for oxidative fiber in skeletal muscle, the vastus laterais muscle was isolated from mice that were fed on HFD for 13 weeks. […] A fiber type analysis was conducted in the vastus laterais, gastrocnemius (rich in glycolytic fibers) and soleus (rich in oxidative fiber). Serial cryostat sections of muscle were made from vastus lateralis, gastrocnemius (gastr.) and soleus muscle. The slides were stained with antibody against Type I myosin heavy chain for oxidative fibers. The ratio of type I fibers were increased in all of the skeletal muscle of butyrate-treated mice (data not shown). Succinate dehydrogenase staining of oxidative fibers was done on serial cryostat sections of the vastus lateralis and gastrocnemius (gastr.) muscle.
To quantify the amount of protein of type 1 myosin heavy chain and PGC-1α, whole cell lysates were prepared from muscle tissues and analyzed in an immunoblot. Signals for PGC-1α, type I myosin heavy chain (Myosin), myoglobin, phospho-AMPK and phospho-p38 (p-p38) were blotted with specific antibodies. Relative signal strength was quantified for each band and expressed in FIG. 5B. The results are the mean±SE (n=8 mice). *P<0.01, ** P<0.001 (vs. control). […] A mean value of each protein was presented in the bar figure in FIG. 5B.
AMPK and p38 activities were examined by their phosphorylation status. […]

Structure (SMILES): CCCC(=O)[O-].[Na+] [sodium butyrate]
- body temperature (rectal) at 30 minutes in the cold [1]: 35 °C
- body temperature (rectal) for the rest of time in the cold ([1]; up to 90 min): 36 °C
- fatty acid oxidation in muscle, increase in 14C-labeled CO2 ([2]; 14C-labeled palmitic acid): 200%
- CPT-1b expression in skeletal muscle ([2]; mRNA): increased
- PPARδ expression in skeletal muscle ([2]; mRNA): also increased
- COX-I expression in skeletal muscle ([2]; mitochondrial DNA by Sybr green RT-PCR): increased
- AMPK phosphorylation in muscle lysate ([3]; immunoblot): increase in their phosphorylation
- PGC-1α protein in muscle ([3]; immunoblot): significant increase
- myoglobin protein in muscle ([3]; immunoblot): also increased
- p38 phosphorylation in muscle lysate ([3]; immunoblot): increase in their phosphorylation
- type 1 myosin heavy chain protein in muscle ([3]; immunoblot): significant increase
- Type I fibers (succinate dehydrogenase staining) ([3]; vastus lateralis and gastrocnemius): increase in Type I fibers
- ratio of type I fibers (Type I myosin heavy chain immunostaining) ([3]; vastus lateralis, gastrocnemius, soleus): increased

Source: US20130123358A1, “Metabolic Benefits to Butyrate as a Chronic Diet Supplement” (priority 2009, published 2013)
